From PubChem BioAssay (NCI) come the findings set out here.

Test systems include DLD-1 colon; DMS 114 small cell lung; LXFL 529 NSCLC; SNB-78 CNS; DMS 273 small cell lung; HOP-18 NSCLC; P388 leukemia; P388/ADR leukemia; SN12K1 renal; XF 498 CNS; RXF-631 renal.
Assay in all cases: NCI tumour cell line growth inhibition, 48 h

The structures appear in SMILES notation.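 Assay format: 96-well plates, 48-hour exposure. TGI: concentration producing complete growth inhibition.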

Turning to `CC(C)(C)C1=Cc2cc3cc(C(C)(C)C)[nH]c(=O)c3cc2S(=O)(=O)N1`, the TGI was > 100 µM in the experiment on DLD-1 colon, 44.4 µM in the experiment with DMS 114 small cell lung, 76.7 µM in the experiment on LXFL 529 NSCLC and > 100 µM in the experiment on SNB-78 CNS.
For `C/C(=C\c1ccccc1)C(=O)CCN1CCOCC1`, the TGI in the experiment with DLD-1 colon is 33.4 µM; in the experiment on DMS 114 small cell lung, 35.2 µM; with DMS 273 small cell lung, 35.3 µM; in the experiment with HOP-18 NSCLC it was 32.3 µM; with P388 leukemia it was 36.1 µM; in the experiment on P388/ADR leukemia it was > 55.1 µM. In addition, the TGI in the experiment on SN12K1 renal worked out at 32.8 µM; in the experiment on SNB-78 CNS it was 35.4 µM; in the experiment with XF 498 CNS, 33.3 µM.
As to `CN(C)C(CN)CC1=C(CC(CN)N(C)C)CCC1` (stereo unspecified), the TGI in the experiment on DLD-1 colon, in the experiment with DMS 114 small cell lung, in the experiment with DMS 273 small cell lung, in the experiment on HOP-18 NSCLC, in the experiment with P388 leukemia and with P388/ADR leukemia was > 100 µM each time. Besides, the TGI in the experiment with SN12K1 renal, in the experiment on SNB-78 CNS and in the experiment on XF 498 CNS was > 100 µM each time.
On to `NC(=O)C(=O)N/N=C1/c2ccccc2CC1C1(O)C(=O)Nc2c(Cl)cc(Cl)cc21` (stereo unspecified), for which the TGI in the experiment on DLD-1 colon, in the experiment with DMS 114 small cell lung, in the experiment on DMS 273 small cell lung, in the experiment with HOP-18 NSCLC, with SNB-78 CNS and in the experiment on XF 498 CNS was > 100 µM each time.
Regarding `CCOC(=O)C1=C(C(C)=O)CSC(c2ccccc2)=N1`, the TGI in the experiment on DLD-1 colon, with DMS 114 small cell lung, in the experiment on DMS 273 small cell lung, in the experiment on HOP-18 NSCLC, in the experiment on P388 leukemia and with P388/ADR leukemia was > 100 µM in each case. The TGI in the experiment on SN12K1 renal, with SNB-78 CNS and with XF 498 CNS was > 100 µM in each case.
On to `C=C1C(=O)OC2/C=C(\CO)C(OC(C)=O)CC(O)/C(C)=C/C(OC(=O)C(C)CC)C12` (stereo unspecified), for which the TGI with DLD-1 colon was 26.5 µM; with DMS 114 small cell lung, > 56.8 µM; in the experiment on DMS 273 small cell lung, 38 µM; with HOP-18 NSCLC it was 38.5 µM; in the experiment on LXFL 529 NSCLC, 28.3 µM; in the experiment with RXF-631 renal, > 100 µM. Further, the TGI in the experiment with SNB-78 CNS came out at 42.9 µM; in the experiment with XF 498 CNS it was 29.7 µM.
As for `C/C(=N/NC(N)=S)c1ccc2ccccc2c1`, the TGI with DLD-1 colon was > 100 µM; in the experiment on DMS 114 small cell lung it was 49.9 µM; with DMS 273 small cell lung it was 90.9 µM; in the experiment on LXFL 529 NSCLC it was > 100 µM; in the experiment with SNB-78 CNS, > 100 µM; with XF 498 CNS, > 100 µM.
Turning to `COCOc1ccc(OC)cc1`, the TGI with DLD-1 colon, with DMS 273 small cell lung, with HOP-18 NSCLC, in the experiment on P388 leukemia, in the experiment with P388/ADR leukemia and with SN12K1 renal was > 100 µM each time. The TGI in the experiment on SNB-78 CNS and in the experiment with XF 498 CNS was > 100 µM each time.
With `COc1cc(/C=C/C(=O)O)ccc1C(=O)O/C=C/c1ccccc1`, the TGI in the experiment on DLD-1 colon is > 100 µM; in the experiment with DMS 114 small cell lung, > 100 µM; with DMS 273 small cell lung, > 100 µM; in the experiment on HOP-18 NSCLC, > 100 µM; with P388 leukemia, > 100 µM; in the experiment on P388/ADR leukemia it was 68.9 µM. The TGI in the experiment with SN12K1 renal, in the experiment on SNB-78 CNS and with XF 498 CNS was > 100 µM each time.
On to `CCC12C[N+]3([O-])CCc4c([nH]c5ccccc45)C(C(=O)OC)(c4cc5c(cc4OC)N(C)C4C(O)(C(=O)OC)C(OC(C)=O)C6(CC)C=CCN7CCC54C76)CC(C3)C1O2` (stereo unspecified), for which the TGI in the experiment with DLD-1 colon turned out to be 30.9 µM; in the experiment on DMS 114 small cell lung it was 4.28 µM; with DMS 273 small cell lung, 12.2 µM; in the experiment with HOP-18 NSCLC, 47.5 µM; in the experiment with LXFL 529 NSCLC, 24.6 µM; in the experiment on SNB-78 CNS, 4.65 µM. The TGI in the experiment on XF 498 CNS worked out at 15.3 µM.
As for `CCN(CC)CCNc1ccc2nnn3c4ccc(OC)cc4c(=O)c1c23`, the TGI in the experiment with DLD-1 colon turned out to be 22 µM; with DMS 114 small cell lung, 21.2 µM; with HOP-18 NSCLC it was 23.2 µM; with LXFL 529 NSCLC it was 21.4 µM; in the experiment with RXF-631 renal, 16.3 µM; with SNB-78 CNS, 25.8 µM.
